Laboratory results reported in patent publication US12630571B2, “Crystal form of L-glufosinate and preparation method and use thereof” (JIANGSU SEVENCONTINENT GREEN TECHNOLOGY RESEARCH INSTITUTE …, priority 2022, dated 2026).

Legend:
Hygroscopicity test = format: physicochemical; details: 48 h; for Weight change (%): 100 g solid
Procedure: Experimental scheme: 100 g of solids were placed under different humidity for 48 h, and re-measured whether there was a significant change in their quality, and visually inspected whether there was a significant change in their appearance, so as to determine whether the crystal form had hygroscopicity, and the specific results of the crystal forms A, B, and C were shown in Table 7, and the specific results of the crystal forms D and E were shown in Table 8.

Stability test (storage) = format: physicochemical; details: for Appearance (change after storage) / Crystal form (change after storage) / Weight change (%): humidity 65%; for stability (in words): compared with the crystal forms in CN111065270A
Procedure: Experimental method: The crystal forms A, B, and C were stored at a temperature of 60° C. for 7 days, the crystal form changes were re-measured, and the specific results were shown in Table 9.
The crystals obtained in Embodiments 4-9 were stored for 48 days at 25° C. and 60° C., respectively, the crystal form changes were re-measured, and the specific results were shown in Table 10.

[1] = DSC heat absorption and decomposition temperatures (high temperature stability); format: physicochemical; details: for Start of heat absorption: DSC; for Peak: DSC endothermic peak temperature
Procedure: (§1) In the present application, the test instruments and conditions used in the experiment are as follows: • 1. The crystal form of the product was analyzed by X-ray powder diffractometer (XRD, Rigaku D/Max-2500 type, Cu Kα radiation, λKα=0.15406 nm), the emission voltage and current were 40 kV and 100 mA, respectively, and the scanning range was 2-40°, the scan step size was 0.02°, and the scan rate was 8°/min. • 2. Differential Scanning calorimetry (DSC) and Thermogravimetric Analysis (TGA): DSC and TGA analyses were performed using a TGA/DSC Model 1 instrument from Mettler Toledo. The DSC measurement method was as follows: take 5-10 mg of the sample into an aluminum crucible, put it into the instrument, set the nitrogen flow rate to 50 ml/min, 200 ml/min, and increase the temperature from 30° C. to 200° C. at a rate of 10° C./min, and analysis was performed using STAR software from Mettler Toledo. The TGA measurement method was as follows: take 5-10 mg of the sample into an aluminum crucible, put it into the instrument, set the nitrogen flow rate to 20 ml/min, 50 ml/min, and increase the temperature from 30° C. to 200° C. at a rate of 10° C./min, and analysis was performed using STAR software from Mettler Toledo.
For the crystal form A, crystal form B, crystal form D and crystal form E of L-glufosinate ammonium, the data comparison of its high temperature stability were shown in Table 6.

[2] = Thermogravimetric analysis (TGA); format: physicochemical
Procedure: as §1

Alopecurus aequalis = assay: Field efficacy experiment, plant control effect; format: in vivo; details: 10% aqueous solution, 120 mL/mu, 7 days after treatment
Procedure: (§2) The combination of preparation processing and field efficacy test was adopted below.
(§3) The above-mentioned formulations were prepared with the crystals of the embodiments of the present disclosure and the crystal form A in the patent CN111065270A respectively for field efficacy experiments. It was detected that the physical and chemical properties of the aqueous solution products prepared by each crystal form were stable and met the needs of production and use, and at the same time, field experiments were carried out on different weeds. The dosage was 120 mL/mu.
(§4) Referring to the “Pesticide-Guidelines for the field efficacy trials”, 5 sites were investigated in each plot, each site was 1 square meter, and the types of weeds, the total number of plants, the symptoms of poisoning, the number of dead plants, etc. were recorded for each treatment 7 days after the treatment, and then the results of the plant control effect were counted, and the weed mortality was calculated and counted specifically.

Bluegrass = assay: Field efficacy experiment, plant control effect; format: in vivo; details: 10% aqueous solution, 120 mL/mu, 7 days after treatment
Procedure: as §2, §3, §4

Euphorbia helioscopia = assay: Field efficacy experiment, plant control effect; format: in vivo; details: 10% aqueous solution, 120 mL/mu, 7 days after treatment
Procedure: as §2, §3, §4

[3] = tested on: weeds such as Rumex, Alopecurus aequalis, Euphorbia helioscopia, and bluegrass; assay: Field efficacy experiment, summary statements over all weeds; format: in vivo; details: difference in plant control effect
Procedure: as §2, §3, §4

Rumex = assay: Field efficacy experiment, plant control effect; format: in vivo; details: 10% aqueous solution, 120 mL/mu, 7 days after treatment
Procedure: as §2, §3, §4

[4] = listed as Crystal form D of L-glufosinate ammonium
[5] = listed as Crystal form D of L-Glufosinate Ammonium
[6] = listed as Crystal form D of Embodiment 4 of the present disclosure
[7] = listed as Crystal form B of L-glufosinate ammonium
[8] = listed as Crystal form B of Embodiment 2 of the present disclosure
[9] = listed as Crystal form E of L-glufosinate ammonium
[10] = listed as Crystal form E of L-Glufosinate Ammonium
[11] = listed as Crystal form E of Embodiment 5 of the present disclosure
[12] = listed as Crystal form A of L-glufosinate ammonium
[13] = listed as Crystal form A of Embodiment 1 of the present disclosure

With CP(=O)(O)CC[C@H](N)C(=O)O [Crystal form C, L-glufosinate] the “Weight change (%)” value (Hygroscopicity test; 20° C., humidity 65%) was “+0.02%”, the “Weight change (%)” value (Hygroscopicity test; 20° C., humidity 80%) was “+1.54%” and the “Appearance (change after storage)” value (Stability test (storage); 60° C., 7 days) was “Unchanged”. For the same compound, the “Crystal form (change after storage)” value (Stability test (storage); 60° C., 7 days) was “Unchanged” and the “stability (in words)” value (Stability test (storage)) was “excellent stability”.
With CP(=O)(O)CCC(N)C(=O)O.N (stereo not drawn) [Crystal form in CN113831364A, reference compound] the “Start of heat absorption” value [1] was 104° ° C and the Peak [1] was 115° ° C.
With CP(=O)(O)CC[C@H](N)C(=O)O.N [Crystal form D, L-glufosinate ammonium] the Peak [1, 4] was 179.83° ° C, the “Start of heat absorption” value [1, 4] was 161.84° ° C and the “temperature below which the weight of the crystal was basically unchanged” value [2, 5] was 139.5 °C. For the same compound, the “temperature from which weight decreased rapidly (decomposition)” value [2, 5] was 206.5 °C, the “temperature from which weight started to decrease slowly (release of ammonia gas)” value [2, 5] was 139.5 °C and the Appearance change (Hygroscopicity test; 25° C., humidity 65%) was “Unchanged”. For the same compound, the “Weight change (%)” value (Hygroscopicity test; 25° C., humidity 65%, listed as Embodiment 4) was “+0.03%”, the “Weight change (%)” value (Hygroscopicity test; 25° C., humidity 65%, listed as Embodiment 6) was “+0.03%” and the “Weight change (%)” value (Hygroscopicity test; 25° C., humidity 65%, listed as Embodiment 7) was “+0.01%”. The Appearance change (Hygroscopicity test; 25° C., humidity 80%) was “Unchanged”, the “Weight change (%)” value (Hygroscopicity test; 25° C., humidity 80%, listed as Embodiment 4) was “+1.12%” and the “Weight change (%)” value (Hygroscopicity test; 25° C., humidity 80%, listed as Embodiment 6) was “+1.17%”. The “Weight change (%)” value (Hygroscopicity test; 25° C., humidity 80%, listed as Embodiment 7) was “+1.12%”, the “Weight change (%)” value (Stability test (storage); 25° C., 48 days, listed as Embodiment 4) was “+0.03%” and the “Weight change (%)” value (Stability test (storage); 25° C., 48 days, listed as Embodiment 6) was “+0.03%”. The “Weight change (%)” value (Stability test (storage); 25° C., 48 days, listed as Embodiment 7) was “+0.01%”, the “Appearance (change after storage)” value (Stability test (storage); 60° C., 48 days) was “Unchanged” and the “Crystal form (change after storage)” value (Stability test (storage); 60° C., 48 days) was “Unchanged”. For the same compound, the “Weight change (%)” value (Stability test (storage); 60° C., 48 days, listed as Embodiment 4) was “+0.02%”, the “Weight change (%)” value (Stability test (storage); 60° C., 48 days, listed as Embodiment 6) was “+0.02%” and the “Weight change (%)” value (Stability test (storage); 60° C., 48 days, listed as Embodiment 7) was “+0.01%”. The “storage stability (in words)” value (Stability test (storage); at 25° C. and 60° C.) was “excellent storage stability”, the “Plant control effect (%) Alopecurus aequalis” value (Alopecurus aequalis; [6]) was 86% and the “Plant control effect (%) Bluegrass” value (Bluegrass; [6]) was 85%. The “Plant control effect (%) Euphorbia helioscopia” value (Euphorbia helioscopia; [6]) was 85% and the “efficacy higher than other crystal forms of the ammonium salt” value [3] was “about 5%”.
For CP(=O)(O)CC[C@H](N)C(=O)O.N [Crystal form B, L-glufosinate ammonium], the Peak [1, 7] was 134° ° C, the “Start of heat absorption” value [1, 7] was 125° ° C and the “Weight change (%)” value (Hygroscopicity test; 20° C., humidity 65%, listed as B) was “+0.03%”. The “Weight change (%)” value (Hygroscopicity test; 20° C., humidity 80%, listed as B) was “+1.55%”, the “Plant control effect (%) Alopecurus aequalis” value (Alopecurus aequalis; [8]) was 85% and the “Plant control effect (%) Bluegrass” value (Bluegrass; [8]) was 80%. The “Plant control effect (%) Euphorbia helioscopia” value (Euphorbia helioscopia; [8]) was 80% and the “Plant control effect (%) Rumex” value (Rumex) was 100%.
In the case of CP(=O)(O)CC[C@H](N)C(=O)O.N [Crystal form E, L-glufosinate ammonium], the Peak [1, 9] is reported as 185.833° ° C, the “Start of heat absorption” value [1, 9] is reported as 147° ° C and the “temperature below which the weight of the crystal was basically unchanged” value [2, 10] is reported as 95.5 °C. For the same compound, the “temperature from which weight decreased rapidly (decomposition)” value [2, 10] was 226.5 °C, the “temperature from which weight started to decrease slowly (release of ammonia gas)” value [2, 10] was 147 °C and the slow weight decrease ([2]; starting at 95.5° C.) was 1.2%. The “Weight change (%)” value (Hygroscopicity test; 25° C., humidity 65%, listed as Embodiment 5) was “+0.02%”, the “Weight change (%)” value (Hygroscopicity test; 25° C., humidity 65%, listed as Embodiment 8) was “+0.02%” and the “Weight change (%)” value (Hygroscopicity test; 25° C., humidity 65%, listed as Embodiment 9) was “+0.02%”. For the same compound, the “Weight change (%)” value (Hygroscopicity test; 25° C., humidity 80%, listed as Embodiment 5) was “+1.23%”, the “Weight change (%)” value (Hygroscopicity test; 25° C., humidity 80%, listed as Embodiment 8) was “+1.15%” and the “Weight change (%)” value (Hygroscopicity test; 25° C., humidity 80%, listed as Embodiment 9) was “+1.18%”. For the same compound, the “Appearance (change after storage)” value (Stability test (storage); 25° C., 48 days) was “Unchanged”, the “Crystal form (change after storage)” value (Stability test (storage); 25° C., 48 days) was “Unchanged” and the “Weight change (%)” value (Stability test (storage); 25° C., 48 days, listed as Embodiment 5) was “+0.02%”. For the same compound, the “Weight change (%)” value (Stability test (storage); 25° C., 48 days, listed as Embodiment 8) was “+0.02%”, the “Weight change (%)” value (Stability test (storage); 25° C., 48 days, listed as Embodiment 9) was “+0.02%” and the “Weight change (%)” value (Stability test (storage); 60° C., 48 days, listed as Embodiment 5) was “+0.01%”. For the same compound, the “Weight change (%)” value (Stability test (storage); 60° C., 48 days, listed as Embodiment 8) was “+0.02%”, the “Weight change (%)” value (Stability test (storage); 60° C., 48 days, listed as Embodiment 9) was “+0.02%” and the “Plant control effect (%) Alopecurus aequalis” value (Alopecurus aequalis; [11]) was 85%. For the same compound, the “Plant control effect (%) Bluegrass” value (Bluegrass; [11]) was 85% and the “Plant control effect (%) Euphorbia helioscopia” value (Euphorbia helioscopia; [11]) was 90%.
With CP(=O)(O)CC[C@H](N)C(=O)O.N [Crystal form A, L-glufosinate ammonium] the Peak [1, 12] was 129° ° C, the “Start of heat absorption” value [1, 12] was 110° ° C and the “high temperature stability (in words)” value ([1]; versus the ammonium salt crystal forms in the existing patent) was “better high temperature stability”. For the same compound, the “Weight change (%)” value (Hygroscopicity test; 20° C., humidity 65%, listed as A) was “+0.02%”, the “Weight change (%)” value (Hygroscopicity test; 20° C., humidity 80%, listed as A) was “+1.45%” and the “Appearance (change after storage)” value (Stability test (storage); 60° C., 7 days) was “Unchanged”. For the same compound, the “Crystal form (change after storage)” value (Stability test (storage); 60° C., 7 days) was “Unchanged”, the “stability (in words)” value (Stability test (storage)) was “excellent stability” and the “Plant control effect (%) Alopecurus aequalis” value (Alopecurus aequalis; [13]) was 80%. For the same compound, the “Plant control effect (%) Bluegrass” value (Bluegrass; [13]) was 80% and the “Plant control effect (%) Euphorbia helioscopia” value (Euphorbia helioscopia; [13]) was 80%.
